# Tests used:
# [1] = system: human PGHS-2 protein expression in LPS stimulated human monocytes; assay: Prostoglandin Endoperoxide Synthase-2 (PGHS-2) Assay; type: cell-based; details: for LPS induced PGHS-2 protein expression (inactive in this assay): up to 10 uM; for inhibited LPS induced PGHS-2 protein expression (active in this assay): rank order potency similar to that for inhibiting cytokine production
# Procedure: The following assay describes a method for determining the inhibitory effects of compounds of Formula (I) on human PGHS-2 protein expression in LPS stimulated human monocytes.
# Human peripheral blood monocytes were isolated from buffy coats by centrifugation through Ficoll and Percoll gradients. Cells were seeded at 2×10^6/well in 24 well plates and allowed to adhere for 1 hour in RPMI supplemented with 1% human AB serum, 20 mM L-glutamine, Penicillin-Streptomycin and 10 mM HEPES. Compounds were added at various concentrations and incubated at 37° C. for 10 minutes. LPS was added at 50 ng/well (to induce enzyme expression) and incubated overnight at 37° C. The supernatant was removed and cells washed once in cold PBS. The cells were lysed in 100 μl of cold lysis buffer(50 mM Tris/HCl pH 7.5, 150 mM NaCl, 1% NP40, 0.5% sodium deoxycholate, 0.1% SDS, 300 ug/ml DNAse, 0.1% TRITON X-100, 1 mM PMSF, 1 mM leupeptin, 1 mM pepstatin). The lysate was centrifuged (10,000×g for 10 min. at 4° C.) to remove debris and the soluble fraction was subjected to SDS PAGE. analysis (12% gel). Protein separated on the gel were transferred onto nitrocellulose membrane by electrophoretic means for 2 hours at 60 volts. The membrane was pretreated for one hour in PBS/0.1% Tween 20 with 5% non-fat dry milk. After washing 3 times in PBS/Tween buffer, the membrane was incubated with a 1:2000 dilution of a monospecific antiserum to PGHS-2 or a 1:1000 dilution of an antiserum to PGHS-1 in PBS/Tween with 1% BSA for one hour with continuous shaking. The membrane was washed 3× in PBS/Tween and then incubated with a 1:3000 dilution of horseradish peroxidase conjugated donkey antiserum to rabbit Ig (Amersham) in PBS/Tween with 1% BSA for one hour with continuous shaking. The membrane was then washed 3× in PBS/Tween and the ECL immunodetection system (Amersham) was used to detect the level of expression of prostaglandin endoperoxide synthases-2.
# [2] = system: pro-inflammatory proteins including, IL-6, IL-8, GM-CSF and COX-2; details: cited from earlier work
smiles,measurement,setting,value
"C[S+]([O-])c1ccc(-c2nc3n(c2-c2ccncc2)CCC3)cc1 (stereo not shown) [2-(4-Methylsulfinylphenyl)-3-(4-pyridyl)-6,7-dihydro-(5H)-pyrrolo[1,2-a]imidazole]",LPS induced PGHS-2 protein expression (inactive in this assay),[1],inactive
"Fc1ccc(-c2nc3n(c2-c2ccncc2)CCS3)cc1 [6-(4-Fluoro-phenyl)-2,3-dihydro-5-(4-pyridinyl)imidazo[2,1-b]thiazole]",inhibited LPS induced PGHS-2 protein expression (active in this assay),[1],active
C[C@@H]1C[C@H]2[C@@H]3CCC4=CC(=O)C=C[C@]4(C)[C@@]3(F)[C@@H](O)C[C@]2(C)[C@@]1(O)C(=O)CO [Dexamethasone],inhibited LPS induced PGHS-2 protein expression (active in this assay),[1],active
COc1ccc(C2CNC(=O)C2)cc1OC1CCCC1 (stereo not shown) [Rolipram],LPS induced PGHS-2 protein expression (inactive in this assay),[1],inactive
C[S+]([O-])c1ccc(-c2nc(-c3ccncc3)c(-c3ccc(F)cc3)[nH]2)cc1 (stereo not shown) [SB 203580],"synthesis of pro-inflammatory proteins including IL-6, IL-8, GM-CSF and COX-2",[2],decrease
Fc1ccc(-c2nc3n(c2-c2ccncc2)CCS3)cc1 [SK&F 86002],"synthesis of pro-inflammatory proteins including IL-6, IL-8, GM-CSF and COX-2",[2],decrease
O=C1CCN(c2ccccc2)N1 [phenidone],LPS induced PGHS-2 protein expression (inactive in this assay),[1],inactive

# Reference: patent US6730683B2, “Compounds of heteroaryl substituted imidazole, their pharmaceutical compositions and uses” (SmithKline Beecham Corporation, priority 1997, dated 2004)
